Laboratory results published in ChEMBL document CHEMBL1133517, “Design, radiosynthesis, and biodistribution of a new potent and selective ligand for in vivo imaging of the adenosine A(2A) receptor system using positron emission tomography” (J Med Chem, 2000).

Experiments:
Rattus norvegicus [1] = organism: Rattus norvegicus; test: Biodistribution in rat adrenal after 60 min time interval; assay type: ADME, organism-based; settings: in vivo, 1 h
Rattus norvegicus [2] = organism: Rattus norvegicus; test: Biodistribution in rat pons after 5 min time interval; assay type: ADME, organism-based; settings: in vivo
Rattus norvegicus [3] = organism: Rattus norvegicus; test: Biodistribution in rat spleen after 60 min time interval; assay type: ADME, organism-based; settings: in vivo, 1 h
Rattus norvegicus [4] = organism: Rattus norvegicus; test: Biodistribution in rat spleen after 15 min time interval; assay type: ADME, organism-based; settings: in vivo, 0.25 h
Rattus norvegicus [5] = organism: Rattus norvegicus; test: Biodistribution in rat heart after 15 min time interval; assay type: ADME, organism-based; settings: in vivo, 0.25 h
Rattus norvegicus [6] = organism: Rattus norvegicus; test: Biodistribution in rat anti-CTX after 5 min time interval; assay type: ADME, organism-based; settings: in vivo
Rattus norvegicus [7] = organism: Rattus norvegicus; test: Biodistribution in rat adrenal after 15 min time interval; assay type: ADME, organism-based; settings: in vivo, 0.25 h
Rattus norvegicus [8] = organism: Rattus norvegicus; test: Biodistribution in rat kidney after 15 min time interval; assay type: ADME, organism-based; settings: in vivo, 0.25 h
Rattus norvegicus [9] = organism: Rattus norvegicus; test: Biodistribution in rat hypothalamus after 15 min time interval; assay type: ADME, organism-based; settings: in vivo, 0.25 h
Rattus norvegicus [10] = organism: Rattus norvegicus; test: Biodistribution in rat spleen after 90 min time interval; assay type: ADME, organism-based; settings: in vivo, 1.5 h
Rattus norvegicus [11] = organism: Rattus norvegicus; test: Biodistribution in rat plasma after 30 min time interval; assay type: ADME, organism-based; settings: in vivo, 0.5 h
Rattus norvegicus [12] = organism: Rattus norvegicus; test: Biodistribution in rat hypothalamus after 30 min time interval; assay type: ADME, organism-based; settings: in vivo, 0.5 h
Rattus norvegicus [13] = organism: Rattus norvegicus; test: Biodistribution in rat striatum after 90 min time interval; assay type: ADME, organism-based; settings: in vivo, 1.5 h
Rattus norvegicus [14] = organism: Rattus norvegicus; test: Biodistribution in rat thalamus after 30 min time interval; assay type: ADME, organism-based; settings: in vivo, 0.5 h
Rattus norvegicus [15] = organism: Rattus norvegicus; test: Biodistribution in rat striatum after 5 min time interval; assay type: ADME, organism-based; settings: in vivo
Rattus norvegicus [16] = organism: Rattus norvegicus; test: Biodistribution in rat testes after 5 min time interval; assay type: ADME, organism-based, Testis; settings: in vivo
Rattus norvegicus [17] = organism: Rattus norvegicus; test: Biodistribution in rat plasma after 5 min time interval; assay type: ADME, organism-based; settings: in vivo
Rattus norvegicus [18] = organism: Rattus norvegicus; test: Biodistribution in rat anti-CTX after 60 min time interval; assay type: ADME, organism-based; settings: in vivo, 1 h
Rattus norvegicus [19] = organism: Rattus norvegicus; test: Biodistribution in rat pons after 30 min time interval; assay type: ADME, organism-based; settings: in vivo, 0.5 h
Rattus norvegicus [20] = organism: Rattus norvegicus; test: Biodistribution in rat liver after 30 min time interval; assay type: ADME, organism-based; settings: in vivo, 0.5 h
Rattus norvegicus [21] = organism: Rattus norvegicus; test: Biodistribution in rat muscle after 60 min time interval; assay type: ADME, organism-based, Muscle tissue; settings: in vivo, 1 h
Rattus norvegicus [22] = organism: Rattus norvegicus; test: Biodistribution in rat kidney after 5 min time interval; assay type: ADME, organism-based; settings: in vivo
Rattus norvegicus [23] = organism: Rattus norvegicus; test: Biodistribution in rat pons after 60 min time interval; assay type: ADME, organism-based; settings: in vivo, 1 h
Rattus norvegicus [24] = organism: Rattus norvegicus; test: Biodistribution in rat thalamus after 5 min time interval; assay type: ADME, organism-based; settings: in vivo
Rattus norvegicus [25] = organism: Rattus norvegicus; test: Biodistribution in rat trachea after 90 min time interval; assay type: ADME, organism-based; settings: in vivo, 1.5 h
Rattus norvegicus [26] = organism: Rattus norvegicus; test: Biodistribution in rat testes after 15 min time interval; assay type: ADME, organism-based, Testis; settings: in vivo, 0.25 h
Rattus norvegicus [27] = organism: Rattus norvegicus; test: Biodistribution in rat heart after 30 min time interval; assay type: ADME, organism-based; settings: in vivo, 0.5 h
Rattus norvegicus [28] = organism: Rattus norvegicus; test: Biodistribution in rat heart after 90 min time interval; assay type: ADME, organism-based; settings: in vivo, 1.5 h
Rattus norvegicus [29] = organism: Rattus norvegicus; test: Biodistribution in rat muscle after 30 min time interval; assay type: ADME, organism-based, Muscle tissue; settings: in vivo, 0.5 h
Rattus norvegicus [30] = organism: Rattus norvegicus; test: Biodistribution in rat post-CTX after 60 min time interval; assay type: ADME, organism-based; settings: in vivo, 1 h
Rattus norvegicus [31] = organism: Rattus norvegicus; test: Biodistribution in rat post-CTX after 30 min time interval; assay type: ADME, organism-based; settings: in vivo, 0.5 h
Rattus norvegicus [32] = organism: Rattus norvegicus; test: Biodistribution in rat hypothalamus after 60 min time interval; assay type: ADME, organism-based; settings: in vivo, 1 h
Rattus norvegicus [33] = organism: Rattus norvegicus; test: Biodistribution in rat pituitary after 30 min time interval; assay type: ADME, organism-based, Pituitary gland; settings: in vivo, 0.5 h
Rattus norvegicus [34] = organism: Rattus norvegicus; test: Biodistribution in rat hippocampus after 15 min time interval; assay type: ADME, organism-based; settings: in vivo, 0.25 h
Rattus norvegicus [35] = organism: Rattus norvegicus; test: Biodistribution in rat muscle after 90 min time interval; assay type: ADME, organism-based, Muscle tissue; settings: in vivo, 1.5 h
Rattus norvegicus [36] = organism: Rattus norvegicus; test: Biodistribution in rat cerebellem after 15 min time interval; assay type: ADME, organism-based, Cerebellum; settings: in vivo, 0.25 h
Rattus norvegicus [37] = organism: Rattus norvegicus; test: Biodistribution in rat heart after 5 min time interval; assay type: ADME, organism-based; settings: in vivo
Rattus norvegicus [38] = organism: Rattus norvegicus; test: Biodistribution in rat blood after 60 min time interval; assay type: ADME, organism-based; settings: in vivo, 1 h
Rattus norvegicus [39] = organism: Rattus norvegicus; test: Biodistribution in rat trachea after 30 min time interval; assay type: ADME, organism-based; settings: in vivo, 0.5 h
Rattus norvegicus [40] = organism: Rattus norvegicus; test: Biodistribution in rat cerebellem after 60 min time interval; assay type: ADME, organism-based, Cerebellum; settings: in vivo, 1 h
Rattus norvegicus [41] = organism: Rattus norvegicus; test: Biodistribution in rat cerebellem after 90 min time interval; assay type: ADME, organism-based, Cerebellum; settings: in vivo, 1.5 h
Rattus norvegicus [42] = organism: Rattus norvegicus; test: Biodistribution in rat plasma after 15 min time interval; assay type: ADME, organism-based; settings: in vivo, 0.25 h
Rattus norvegicus [43] = organism: Rattus norvegicus; test: Biodistribution in rat blood after 5 min time interval; assay type: ADME, organism-based; settings: in vivo
Rattus norvegicus [44] = organism: Rattus norvegicus; test: Biodistribution in rat intestine after 90 min time interval; assay type: ADME, organism-based; settings: in vivo, 1.5 h
Rattus norvegicus [45] = organism: Rattus norvegicus; test: Biodistribution in rat heart after 60 min time interval; assay type: ADME, organism-based; settings: in vivo, 1 h
Rattus norvegicus [46] = organism: Rattus norvegicus; test: Biodistribution in rat kidney after 30 min time interval; assay type: ADME, organism-based; settings: in vivo, 0.5 h
Rattus norvegicus [47] = organism: Rattus norvegicus; test: Biodistribution in rat lung after 30 min time interval; assay type: ADME, organism-based; settings: in vivo, 0.5 h
Rattus norvegicus [48] = organism: Rattus norvegicus; test: Biodistribution in rat anti-CTX after 30 min time interval; assay type: ADME, organism-based; settings: in vivo, 0.5 h
Rattus norvegicus [49] = organism: Rattus norvegicus; test: Biodistribution in rat intestine after 60 min time interval; assay type: ADME, organism-based; settings: in vivo, 1 h
Rattus norvegicus [50] = organism: Rattus norvegicus; test: Biodistribution in rat post-CTX after 5 min time interval; assay type: ADME, organism-based; settings: in vivo

- ID/g (Rattus norvegicus [1]): 0.13%
- ID/g (Rattus norvegicus [2]): 0.2%
- ID/g (Rattus norvegicus [3]): 0.06%
- ID/g (Rattus norvegicus [4]): 0.12%
- ID/g (Rattus norvegicus [5]): 0.15%
- ID/g (Rattus norvegicus [6]): 0.18%
- ID/g (Rattus norvegicus [7]): 0.44%
- ID/g (Rattus norvegicus [8]): 0.49%
- ID/g (Rattus norvegicus [9]): 0.07%
- ID/g (Rattus norvegicus [10]): 0.05%
- ID/g (Rattus norvegicus [11]): 0.08%
- ID/g (Rattus norvegicus [12]): 0.04%
- ID/g (Rattus norvegicus [13]): 0.04%
- ID/g (Rattus norvegicus [14]): 0.05%
- ID/g (Rattus norvegicus [15]): 0.43%
- ID/g (Rattus norvegicus [16]): 0.12%
- ID/g (Rattus norvegicus [17]): 0.19%
- ID/g (Rattus norvegicus [18]): 0.02%
- ID/g (Rattus norvegicus [19]): 0.06%
- ID/g (Rattus norvegicus [20]): 0.52%
- ID/g (Rattus norvegicus [21]): 0.04%
- ID/g (Rattus norvegicus [22]): 0.69%
- ID/g (Rattus norvegicus [23]): 0.02%
- ID/g (Rattus norvegicus [24]): 0.2%
- ID/g (Rattus norvegicus [25]): 0.03%
- ID/g (Rattus norvegicus [26]): 0.13%
- ID/g (Rattus norvegicus [27]): 0.09%
- ID/g (Rattus norvegicus [28]): 0.04%
- ID/g (Rattus norvegicus [29]): 0.05%
- ID/g (Rattus norvegicus [30]): 0.02%
- ID/g (Rattus norvegicus [31]): 0.05%
- ID/g (Rattus norvegicus [32]): 0.02%
- ID/g (Rattus norvegicus [33]): 0.05%
- ID/g (Rattus norvegicus [34]): 0.09%
- ID/g (Rattus norvegicus [35]): 0.02%
- ID/g (Rattus norvegicus [36]): 0.1%
- ID/g (Rattus norvegicus [37]): 0.26%
- ID/g (Rattus norvegicus [38]): 0.03%
- ID/g (Rattus norvegicus [39]): 0.09%
- ID/g (Rattus norvegicus [40]): 0.02%
- ID/g (Rattus norvegicus [41]): 0.02%
- ID/g (Rattus norvegicus [42]): 0.13%
- ID/g (Rattus norvegicus [43]): 0.13%
- ID/g (Rattus norvegicus [44]): 0.16%
- ID/g (Rattus norvegicus [45]): 0.04%
- ID/g (Rattus norvegicus [46]): 0.24%
- ID/g (Rattus norvegicus [47]): 0.2%
- ID/g (Rattus norvegicus [48]): 0.06%
- ID/g (Rattus norvegicus [49]): 0.1%
- ID/g (Rattus norvegicus [50]): 0.19%
Structure (SMILES): [11CH3]Oc1ccc(CCCn2ncc3c2nc(N)n2nc(-c4ccco4)nc32)cc1
